Results as given in US20220016079A1, “COMBINATION TREATMENT OF HIV INFECTIONS” (priority 2018, published 2022).

Columns and labels:
[1] = system: latent HIV-1 in rCD4+ cells co-cultured with CD8+ cells; test: HIV-1 reactivation in ex vivo co-cultures of rCD4+ and CD8+ cells from an ART-treated HIV patient (HIV RNA in supernatant); format: cell-based, human
Procedure: The efficacy of IAPa, ICI or IAPa/ICI combinations in reversing HIV-1 latency was tested in HIV-1 infected rCD4+ cells co-cultured for 48 h with CD8+ cells from the same donor.
Method: Blood from one HIV-1-infected patient under ART was collected (500 mL) and CD4+ and CD8+ cells isolated using beads coated with specific antibodies following manufacturer's instruction (MojoSort™ Human Cell Isolation Kits from Biolegend). The CD4+ T cells were re-infected with HIV-1 (JR-CSF) (1 μg of p24), incubated for 3 days to allow establishment of infection, and treated with ART ([…]) for 7 days to ensure presence of enough latent HIV CD4+ cells (rCD4+) in the culture. Upon ART removal, rCD4 were then isolated following manufacturer's instruction (EasySep™ Human Resting CD4+ T Cell Isolation Kit). The isolated rCD4 were mixed with autologous (from the same patient) uninfected CD8+ T cells at a 1:1 ratio (100,000 cells) and incubated in duplicate for 48 h with different IAPa ([…]) or ICI (10 μg/ml) in monotherapy, or the IAPa/ICI combinations. Amounts of virions released from cells were quantified at the indicated time points by quantifying HIV RNA levels (HIV RNA copies/mL) in supernatant of cell culture using one-step reverse transcriptase quantitative real-time PCR (ABI custom TaqMan Assays-by-Design) according to the manufacturer's instructions. Primers were 5-[…]-3 and 5-[…]-3, and MGB probe 5-FAM-[…]-Q-3, where FAM is 6-carboxyfluorescein.

[2] = system: latent HIV in resting CD4+ T-lymphocytes; test: HIV-1 reactivation in resting CD4+ T cells from PBMCs of three ART-treated HIV patients (HIV RNA in supernatant); format: cell-based, human
Source text: The experiments of this example analyzed the ability of IAPa, ICIs, or IAPa/ICI combinations at reactivating latent HIV in resting CD4+ T-lymphocytes isolated from peripheral blood monocytic cells (PBMCs) derived from HIV patients currently under ART.
Method: Resting CD4+ T cells were isolated from PBMCs of three ART-treated HIV patients by negative selection and magnetic separation (Easysep Mouse/Human Chimera Isolation Kits from […] technologies). Isolated resting CD4+ T cells (50,000 cells/50 μL) were treated in duplicate for 48h with different IAPa (1 μM) or ICI (10 μg/ml) in monotherapy, or the IAPa/ICI combinations. Amounts of virions released from cells were quantified at the indicated time points by quantifying HIV RNA levels (HIV RNA copies/mL) in supernatant of cell culture using one-step reverse transcriptase quantitative real-time PCR (ABI custom TaqMan Assays-by-Design) according to the manufacturer's instructions. Primers were 5-[…]-3 and 5-[…]-3, and MGB probe 5-FAM-[…]-Q-3, where FAM is 6-carboxyfluorescein.
(§1) The experiment was carried out using the same agents as described above for Example 8.1 (with the exception that no birinapant was used).

[3] = system: latent HIV-1 in resting CD4+ T cells; test: Ex vivo HIV-1 reactivation in human resting CD4+ T cells from ART-treated HIV-1-infected humanized BLT mice (HIV RNA in supernatant); format: cell-based
Procedure: The efficacy of IAPa, ICI or IAPa/ICI combinations in reversing HIV-1 latency was tested in resting CD4+ T cells derived from ART-treated HIV-1-infected humanized BLT mice.
Human resting CD4+ T cells from ten mice were isolated from blood, thymic organoid, lung, spleen, bone marrow, lymph nodes and liver. Isolated human resting CD4+ T cells were pooled, counted, split and treated in duplicate for 48 h with different IAPa (1 μM) or ICI (10 μg/ml) in monotherapy, or the IAPa/ICI combinations. Amounts of virions released from cells were quantified at the indicated time points by quantifying HIV RNA levels (HIV RNA copies/mL) in supernatant of cell culture using one-step reverse transcriptase quantitative real-time PCR (ABI custom TaqMan Assays-by-Design) according to the manufacturer's instructions. Primers were 5-[…]-3 and 5-[…]-3, and MGB probe 5-FAM-[…]-Q-3, where FAM is 6-carboxyfluorescein.
as §1

[4] = system: latent HIV-1 in 2D10 cells; test: HIV-1 reactivation in latent GFP-reporter 2D10 cells, Debio 1143 and other LRAs alone or in combination; format: cell-based; conditions: LRA at single predetermined concentration with Debio 1143, already at 2 μM Debio 1143, 48 h
Procedure: We compared the efficacy of Debio-1143 at reversing HIV-1 latency with that of other LRAs. We then analyzed the cytotoxicity of Debio-1143 with that of the other LRAs on 2D10 cells. Drug titration was conducted.
Methods: HIV-1 latent GFP-reporter 2D10 cells (100,000 cells/100 μL) were treated in triplicate for 48 h with increasing concentrations of either only Debio-1143 or the LRAs (2000 nM or 20000 nM), or with Debio 1143 (2000 nM or 20000 nM) in combination with the LRAs at a single predetermined concentration (see Table 2). HIV reactivation was analyzed via GFP expression by flow cytometry.

2D10 cells = test: Cytotoxicity by LDH assay in 2D10 cells; format: cell-based; conditions: 0 to 20 μM, 48 h
Procedure: Drug titration was conducted.
For analysis of cell viability, cells (100,000 cells/100 μL) were treated in triplicate for 48 h with increasing concentrations of Debio-1143 or other known LRAs (0 to 20 μM). Cellular cytotoxicity was analyzed by Lactate dehydrogenase (LDH) assay. LDH is an oxidoreductase enzyme that catalyzes the interconversion of pyruvate and lactate. Cells release LDH into the bloodstream after tissue damage or red blood cell hemolysis. Since LDH is a fairly stable enzyme, it has been widely used to evaluate the presence of damage and toxicity of tissue and cells. In this particular, LDH reduces NAD to NADH, which is specifically detected by colorimetric (490 nm) assay.

BIRC2 = biological target: T1, BIRC2 (Homo sapiens, UniProt Q13490); test: BIRC2 (cIAP1) degradation by Western blotting; format: cell-based; conditions: TNFα 10 ng/ml, 2D10 and 293T cells
T1 construct: endogenous in cells; host or cells: 2D10, 293T and CD4+ T cells
T1 sequence (Q13490 whole entry): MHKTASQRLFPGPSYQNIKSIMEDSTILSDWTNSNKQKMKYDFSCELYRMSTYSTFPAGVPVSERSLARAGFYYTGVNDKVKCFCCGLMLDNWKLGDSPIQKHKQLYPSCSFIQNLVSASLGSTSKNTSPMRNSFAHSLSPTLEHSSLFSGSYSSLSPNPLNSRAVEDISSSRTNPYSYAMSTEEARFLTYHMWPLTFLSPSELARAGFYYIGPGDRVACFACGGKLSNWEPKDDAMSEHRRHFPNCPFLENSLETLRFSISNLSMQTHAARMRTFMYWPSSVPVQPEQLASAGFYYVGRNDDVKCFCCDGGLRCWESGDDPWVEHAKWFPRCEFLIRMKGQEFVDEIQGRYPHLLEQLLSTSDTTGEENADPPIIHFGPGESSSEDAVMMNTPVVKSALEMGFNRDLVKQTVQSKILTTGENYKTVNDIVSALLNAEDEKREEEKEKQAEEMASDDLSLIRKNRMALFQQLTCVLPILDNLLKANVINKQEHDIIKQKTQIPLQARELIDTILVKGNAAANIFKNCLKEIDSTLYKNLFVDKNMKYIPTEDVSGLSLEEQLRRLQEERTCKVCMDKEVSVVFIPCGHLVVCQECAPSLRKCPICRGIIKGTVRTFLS
Procedure: It was investigated whether Debio-1143 reverses HIV-1 latency by acting on the NF-κB pathway. Canonical and non-canonical NF-κB signaling pathways play an important role in the reactivation of latent HIV-1, implicating its regulation as an important therapeutic strategy for latency reversal.
Method: 2D10 (A) or 293T (B) and CD4+ T cells (C) cells were treated with DMSO, Debio-1143 (1 μM) and TNFα (10 ng/ml) for the indicated times and analyzed by Western blotting for BIRC2 and IkBα protein expression using antibodies specifically detecting human BIRC2, human IkBα, or human CypA, such as commercially available (e.g. from R&D Systems, Cell Signaling, Santa Cruz Biotechnology, or other sources).

[5] = IAPa 1 μM monotherapy (0.1% DMSO, no ICI), 48 h (Table 3)
[6] = IAPa 1 μM with Control IgG1, 48 h (Table 3)
[7] = IAPa 1 μM with Control IgG2, 48 h (Table 3)
[8] = IAPa 1 μM monotherapy (0.1% DMSO, no ICI), 48 h
[9] = IAPa 1 μM with Control IgG1, 48 h
[10] = IAPa 1 μM with Control IgG2, 48 h

Molecule: CC[C@H](NC(=O)[C@H](C)NC)C(=O)N1C[C@@H](O)C[C@H]1Cc1c(-c2[nH]c3cc(F)ccc3c2C[C@@H]2C[C@H](O)CN2C(=O)[C@H](CC)NC(=O)[C@H](C)NC)[nH]c2cc(F)ccc12 [Birinapant]
- latency reversal class (HIV RNA copies/ml in supernatant) ([1]; IAPa 1 μM monotherapy (0.1% DMSO, no ICI), 48 h (Table 4)): 3 (Subsequent classes were defined accordingly in steps of 500 RNA copies/ml)
- latency reversal class (HIV RNA copies/ml in supernatant) ([1]; IAPa 1 μM with Control IgG1, 48 h (Table 4)): 3 (Subsequent classes were defined accordingly in steps of 500 RNA copies/ml)
- latency reversal class (HIV RNA copies/ml in supernatant) ([1]; IAPa 1 μM with Control IgG2, 48 h (Table 4)): 3 (Subsequent classes were defined accordingly in steps of 500 RNA copies/ml)

Molecule: CN[C@@H](C)C(=O)N[C@H](C(=O)N1CCC[C@H]1C(=O)Nc1sc(-c2ncco2)nc1-c1ccccc1)C1CCCCC1 [CUDC-427]
- latency reversal class (HIV RNA copies/ml in supernatant) [1, 5]: 3 (Subsequent classes were defined accordingly in steps of 500 RNA copies/ml)
- latency reversal class (HIV RNA copies/ml in supernatant) [1, 6]: 3 (Subsequent classes were defined accordingly in steps of 500 RNA copies/ml)
- latency reversal class (HIV RNA copies/ml in supernatant) [1, 7]: 3 (Subsequent classes were defined accordingly in steps of 500 RNA copies/ml)
- latency reversal class (HIV RNA copies/ml in supernatant) [2, 8]: 1 (Between 501 and 1000 RNA copies/ml were classified as “1”)
- latency reversal class (HIV RNA copies/ml in supernatant) [2, 9]: 1 (Between 501 and 1000 RNA copies/ml were classified as “1”)
- latency reversal class (HIV RNA copies/ml in supernatant) [2, 10]: 1 (Between 501 and 1000 RNA copies/ml were classified as “1”)
- latency reversal class (HIV RNA copies/ml in supernatant) [3, 8]: 2 (Between 2501 and 5000 RNA copies/ml were classified as “2”)
- latency reversal class (HIV RNA copies/ml in supernatant) [3, 9]: 2 (Between 2501 and 5000 RNA copies/ml were classified as “2”)
- latency reversal class (HIV RNA copies/ml in supernatant) [3, 10]: 2 (Between 2501 and 5000 RNA copies/ml were classified as “2”)

Molecule: Cc1sc2c(c1C)C(c1ccc(Cl)cc1)=N[C@@H](CC(=O)OC(C)(C)C)c1nnc(C)n1-2 [JQ1]
- degree of HIV reactivation in combination with Debio 1143 [4]: high degrees of HIV reactivation

Molecule: CN[C@@H](C)C(=O)N[C@H](C(=O)N1CCC[C@H]1c1nc(C(=O)c2ccc(F)cc2)cs1)C1CCCCC1 [LCL161]
- latency reversal class (HIV RNA copies/ml in supernatant) [1, 5]: 3 (Subsequent classes were defined accordingly in steps of 500 RNA copies/ml)
- latency reversal class (HIV RNA copies/ml in supernatant) [1, 6]: 2 (Subsequent classes were defined accordingly in steps of 500 RNA copies/ml)
- latency reversal class (HIV RNA copies/ml in supernatant) [1, 7]: 3 (Subsequent classes were defined accordingly in steps of 500 RNA copies/ml)
- latency reversal class (HIV RNA copies/ml in supernatant) [2, 8]: 1 (Between 501 and 1000 RNA copies/ml were classified as “1”)
- latency reversal class (HIV RNA copies/ml in supernatant) [2, 9]: 1 (Between 501 and 1000 RNA copies/ml were classified as “1”)
- latency reversal class (HIV RNA copies/ml in supernatant) [2, 10]: 1 (Between 501 and 1000 RNA copies/ml were classified as “1”)
- latency reversal class (HIV RNA copies/ml in supernatant) [3, 8]: 2 (Between 2501 and 5000 RNA copies/ml were classified as “2”)
- latency reversal class (HIV RNA copies/ml in supernatant) [3, 9]: 2 (Between 2501 and 5000 RNA copies/ml were classified as “2”)
- latency reversal class (HIV RNA copies/ml in supernatant) [3, 10]: 2 (Between 2501 and 5000 RNA copies/ml were classified as “2”)

Molecule: CCC/C=C/C=C/C(=O)O[C@H]1/C(=C/C(=O)OC)C[C@H]2C[C@H]([C@@H](C)O)OC(=O)C[C@H](O)C[C@@H]3C[C@H](OC(C)=O)C(C)(C)[C@](O)(C[C@@H]4C/C(=C/C(=O)OC)C[C@H](/C=C/C(C)(C)[C@]1(O)O2)O4)O3 [bryostatin-1]
- degree of HIV reactivation in combination with Debio 1143 [4]: high degrees of HIV reactivation
- cytotoxicity (LDH assay) (2D10 cells): highly toxic

Molecule: CN1C(=O)[C@@]23C[C@]4([C@]56C[C@@]78SS[C@@](CO)(C(=O)N7[C@H]5Nc5ccccc56)N(C)C8=O)c5ccccc5N[C@@H]4N2C(=O)[C@]1(CO)SS3 [chaetocin]
- cytotoxicity (LDH assay) (2D10 cells): highly toxic

Molecule: Nc1ccccc1NC(=O)c1ccc(CNC(=O)OCc2cccnc2)cc1 [entinostat]
- degree of HIV reactivation in combination with Debio 1143 [4]: high degrees of HIV reactivation

Molecule: Cc1[nH]c2ccccc2c1CCNCc1ccc(/C=C/C(=O)NO)cc1 [panobinostat]
- cytotoxicity (LDH assay) (2D10 cells): highly toxic

Molecule: O=C(CCCCCCC(=O)Nc1ccccc1)NO [vorinostat]
- degree of HIV reactivation in combination with Debio 1143 [4]: high degrees of HIV reactivation

Molecule: TNFα [reference compound]
- BIRC2 degradation (BIRC2): not
